Values of other authors as cited in patent US20120046368A1, “METHOD FOR PURIFYING 3,4-DIHYDROXYPHENYLGLYCOL (DHPG) FROM PLANT PRODUCTS” (CONSEJO SUPERIOR DE INVESTIGACIONES CIENTIFICAS, priority 2008, published 2012).

How the values were obtained:
[1] = fold greater than ascorbic acid or HT
[2] = compared with HT

For `OCC(O)c1ccc(O)c(O)c1` (centres unmarked) [DHPG, 3,4-dihydroxyphenylglycol], the “antioxidant efficacy in water relative to ascorbic acid or HT” value [1] is listed as 2-3 times and the “antioxidant efficacy in a lipid medium relative to HT” value [2] is listed as “twice that of HT”.
